One experiment relates to Cullin-3. As to the kind of experiment: Cell Cycle Antibody Array, PANC-1 cells. The class given is cell-based. Particulars: normalized to GAPDH. An excerpt: (§1) Cell Cycle Protein Expression. Cell Cycle Antibody Array (FullMoon BioSystems Inc, catalogue number: ACC:058), a high throughput ELISA based antibody array, designed for qualitative/semi-quantitative protein expression profiling was employed to investigate the protein changes after drug treatment. PANC-1 cells were lysed in buffer containing protease and phosphatase inhibitors (Cell Signaling, catalog number: 9803S). Total protein content was quantified by Bradford assay and equal amounts of proteins were analyzed in duplicate with arrays containing 4 to 6 spots for each of 60 probes (ACC058, Cell Cycle Antibody Array; Full Moon Biosystems, Sunnyvale, Calif.), according to manufacturer's instructions. After background correction, mean signal intensities were measured using FullMoon Inc's imaging services. Protein expressions in both the naïve and 328 treatment group was normalized to GAPDH signals. Confocal Analysis of Septin Disarrangement. To determine the impact of UR214-9 treatment on Septin-2 structure in cells, PANC-1 or JIMT-1 cells were seeded on glass slides and allowed to adhere overnight. The media was replaced with complete DMEM media supplemented with DMSO or UR214-9 (1 μM and 70 nM) and cells were incubated for 48 hours. […] The cells were stained with fluorescence linked secondary antibody for 1 hr under dark. […] Five cells were outlined and analyzed per field. […]

In the next experiment the test system is HER2+ PANC-1 xenograft. Description: PANC-1 xenograft tumor growth. The class given is in vivo, NSG mice. Particulars: 25 mg/kg IP, 52 days; p<0.0001.
Description: as §1

A further experiment concerns JIMT-1 cells. As to the kind of experiment: Cell cycle analysis (PI, flow cytometry), JIMT-1. The class given is cell-based. Particulars: JIMT-1, 3 μM. The procedure:
For cell cycle analysis, BXPC-3 and PANC-1 and JIMT-1 cells (100,000/well) were seeded overnight in a 6 well dishes and allowed to adhere overnight. Media was replaced with fresh complete medium supplemented with DMSO or UR214-9 (100 nM and 3 μM) and cells were incubated for 72 hours. The media containing the drugs was removed and cells were washed twice with PBS and trypsinized gently. The cells were collected in 15 mL tubes, complete DMEM media was added to block trypsin and cells were centrifuged. The supernatants were removed and cells were gently treated with 70% cold-EtOH for 30 minutes. The fixed cells were centrifuged and the pellets obtained were collected in flow cytometry tubes and stained with preformulated PI/RNase solution (Cell Signaling Technology, catalog number: 4087s) for 30 minutes. The PI content was analyzed using a flow cytometer. Data was processed using Flowjo software.

With `O=C(Nc1cc(Cl)nc(Cl)c1)Nc1cccc(SC(F)(F)F)c1F` [UR214-9], the “Cullin-3 expression, treated versus naïve” value in the experiment with Cullin-3 was “most pronounced upregulation”. The xenograft tumor growth entry in the experiment with HER2+ PANC-1 xenograft is reported as “significantly delayed growth”. Besides, in the experiment with JIMT-1 cells, the cell cycle distribution result is listed as “G1 phase arrest”.

Values taken from patent US12433876B2, “Septin inhibitors for treatment of cancers” (UNIVERSITY OF ROCHESTER, priority 2019, dated 2025).
